The source of these data is PMC11708044 (mBio, 2024).

One assay concerns the target T1, CaMKII-KD (Rattus norvegicus, UniProt P11275).
T1 construct: made in house; host or cells: Sf21 insect cells, baculovirus (pBacPAK8)
Nature of the assay: Kinase assay: phosphorylation of autocamtide-2 by CaMKII-KD. Format: biochemical.

For another assay, the system named is CCL5 and CXCL10 mRNAs. It counts as cell-based, canine.
Assay [1] has as its system IAV strain PR8. Format: cell-based, type A influenza virus (IAV).
The test system of another assay is IFNα, IFNβ, Mx1 mRNAs. It counts as cell-based, canine.
A further assay has as its system NP RNA of IAV strain PR8. It counts as cell-based, type A influenza virus (IAV).
The subject of assay [2] is IAV strain PR8. Format: cell-based, type A influenza virus (IAV). This is another data set of the same source.
In assay [3] the test system is IAV strain PR8. More on the design: species or system BALB/c mice. The following applies: mouse, in vivo.
Another assay has as its system IL-6, TNFα, IL-1β mRNAs. As to the kind of experiment: RT-qPCR of proinflammatory cytokine mRNAs in LPS-treated RAW264.7 cells (Fig. S2c). The following applies: for IL-1β Relative expression AV / IL-6 Relative expression AV / TNFα Relative expression AV: RAW264.7 cells, LPS = 100, mean of n = 3. It counts as cell-based, mouse. How it is done: (§1) a LPS promotes tumor necrosis factor α (TNFα) production in RAW264.7 cells. RAW264.7 cells were treated with the indicated concentration of LPS for 24 h. The amount of TNFα produced in the culture medium was measured by ELISA. Data are presented as a percentage of the control value without peptide (n = 3, mean ± SEM). **P < 0.01; ***P < 0.001 (compared with the control by ANOVA followed by one-sided Dunnett’s test). b The effects of M6 and mM3 on the activation of CaMKII in RAW264.7 cells. RAW264.7 cells were incubated with the indicated concentration of each peptide for 30 min, and then treated with 10 ng/ml LPS for 20 min. The cell lysates were analyzed by western blot using phosphorylated […] specific antibody to detect the activation of CaMKII (upper panel). Data are representative of three independent experiments. […] RAW264.7 cells were incubated with the indicated concentration of each peptide for 30 min, and then treated with10 ng/ml LPS for 3 h. The mRNA level of each proinflammatory cytokine was analyzed by quantitative RT-qPCR. Data are presented as the amount of each mRNA relative to that of LPS treatment only (n = 3, mean ± SEM). **P < 0.01, ***P < 0.001 (compared with the control by ANOVA followed by one-sided Tukey’s test).

Assay [4] relates to CaMKII Thr286 autophosphorylation. As to the kind of experiment: Western blot of LPS-induced CaMKII activation in RAW264.7 cells (Fig. S2b). It counts as cell-based, mouse. The protocol: as §1
Assay [5] concerns TNFα production in RAW264.7 cells. Nature of the assay: ELISA of TNFα production in LPS-treated RAW264.7 cells. It counts as cell-based, mouse. The following applies: RAW264.7, peptide 30 min then LPS 10 ng/mL 24 h. Background: In an ELISA, binding on a coated surface is turned into a signal by an enzyme label.

pIC50: −log10 of the molar value. Like-named read-outs stand apart in the source and are kept apart here. Where a SMILES comes first, the peptide text is derived from it. Bridges are numbered along the chain shown (N, C = ends). Roman numbers before positions name the chains, in order. Where no end group is shown, it is not given here. [ ]: non-standard residue; d: D form. Ahx = NCCCCCC(=O)O

T1 sequence (P11275 13-271 limits assumed): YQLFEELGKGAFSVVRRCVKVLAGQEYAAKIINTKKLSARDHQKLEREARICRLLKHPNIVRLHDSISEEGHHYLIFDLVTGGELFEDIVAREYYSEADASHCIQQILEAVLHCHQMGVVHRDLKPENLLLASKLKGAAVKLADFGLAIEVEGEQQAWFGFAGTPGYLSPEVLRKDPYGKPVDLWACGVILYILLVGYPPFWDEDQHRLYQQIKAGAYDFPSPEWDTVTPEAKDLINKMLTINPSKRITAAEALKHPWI

A word on the pIC50: it is the IC50 on a negative log10 scale, so that one unit is a factor of ten. In the case of “I: MARRILLLLLARHHAKKK[Ahx]KK-NH2 / II: MARRILLLLLARHHAKKK[Ahx]K / III: MARRILLLLLARHHAKKK[Ahx] / IV: MARRILLLLLARHHAKKK[Ahx] (amide I:20-IV:C, I:21-II:C, II:20-III:C) [T2]”, on CaMKII-KD, the negative logarithm of the IC50 (pIC50) was 4.85.
Regarding `CC[C@H](C)[C@H](NC(=O)[C@H](CCCNC(=N)N)NC(=O)[C@H](CCCNC(=N)N)NC(=O)[C@H](C)NC(=O)[C@@H](N)CCSC)C(=O)N[C@@H](CC(C)C)C(=O)N[C@@H](CC(C)C)C(=O)N[C@@H](CC(C)C)C(=O)N[C@@H](CC(C)C)C(=O)N[C@@H](CC(C)C)C(=O)N[C@@H](C)C(=O)N[C@@H](CCCNC(=N)N)C(=O)N[C@@H](CC(C)C)C(=O)N[C@@H](Cc1c[nH]cn1)C(=O)N[C@@H](C)C(=O)N[C@@H](CCCCN)C(=O)N[C@@H](CCCCN)C(=O)N[C@@H](CCCCN)C(=O)NCCCCCC(=O)O` [M3] (H-MARRILLLLLARLHAKKK[Ahx]-OH), the negative-log IC50 (pIC50) at CaMKII-KD (read-out: IC50) was 4.71.
With `O=C1c2c(O)c(=O)ccn2N([C@@H]2c3ccccc3SCc3c2ccc(F)c3F)[C@@H]2COCCN12` [BXA, Baloxavir acid], in the assay on CCL5 and CXCL10 mRNAs, the “expression of CXCL10 and CCL5 mRNAs” value is on record as “also increased their expression”. The “infection-induced cytopathicity” value with IAV strain PR8 [1] is given as “efficiently inhibited”. In the assay on IFNα, IFNβ, Mx1 mRNAs, the “expression of IFNα and β mRNAs early in infection” value was “rather increased the expression of both mRNAs”; the “expression of IFNα and β mRNAs later in infection” value is recorded as “greatly reduced”. Also, the “infection-induced expression of NP mRNA” value in the assay on NP RNA of IAV strain PR8 is recorded as “efficiently inhibited”.
Molecule “I: MARRILLLLLALLHAKKK[Ahx]KK-NH2 / II: MARRILLLLLALLHAKKK[Ahx]K / III: MARRILLLLLALLHAKKK[Ahx] / IV: MARRILLLLLALLHAKKK[Ahx] (amide I:20-IV:C, I:21-II:C, II:20-III:C) [T6]” gave a pIC50 against CaMKII-KD of 4.49.
Take `CSCC[C@H](N)C(=O)N[C@@H](C)C(=O)N[C@@H](CCCNC(=N)N)C(=O)N[C@@H](CCCNC(=N)N)C(=O)N[C@@H](CCCNC(=N)N)C(=O)N[C@@H](CC(C)C)C(=O)N[C@@H](CC(C)C)C(=O)N[C@@H](CC(C)C)C(=O)N[C@@H](CC(C)C)C(=O)N[C@@H](CC(C)C)C(=O)N[C@@H](C)C(=O)N[C@@H](CCCNC(=N)N)C(=O)N[C@@H](Cc1c[nH]cn1)C(=O)N[C@@H](Cc1c[nH]cn1)C(=O)N[C@@H](C)C(=O)N[C@@H](CCCCN)C(=O)N[C@@H](CCCCN)C(=O)N[C@@H](CCCCN)C(=O)NCCCCCC(=O)O` [M1] (H-MARRRLLLLLARHHAKKK[Ahx]-OH): at CaMKII-KD (read-out: IC50), the pIC50 is 4.53.
In the case of `CO/C1=C\C(C)=C\[C@@H](C)[C@@H](O)[C@@H](C)C/C(C)=C/C=C/[C@H](OC)[C@@H]([C@@H](C)[C@@H](O)[C@H](C)[C@@]2(O)C[C@@H](O)[C@H](C)[C@@H](C(C)C)O2)OC1=O` [baf], in the assay with IAV strain PR8 [2], the “DiO positive vesicles (DiO/R18) Average” value was found to be 0.08663.
For “I: MARRRLLLLLARHHAKKK[Ahx]KK-NH2 / II: MARRRLLLLLARHHAKKK[Ahx]K / III: MARRRLLLLLARHHAKKK[Ahx] / IV: MARRRLLLLLARHHAKKK[Ahx] (amide I:20-IV:C, I:21-II:C, II:20-III:C) [T1]”, the pIC50 against CaMKII-KD is 5.62.
For the molecule `COc1ccc(S(=O)(=O)N(CCO)c2ccccc2CN(C)C/C=C/c2ccc(Cl)cc2)cc1` [KN-93], the “protection from mortality” value in the assay with IAV strain PR8 [3] was “provided no protection”.
With `CO/C1=C\C(C)=C\[C@@H](C)[C@@H](O)[C@@H](C)C/C(C)=C/C=C/[C@H](OC)[C@@H]([C@@H](C)[C@@H](O)[C@H](C)[C@@]2(O)C[C@@H](O)[C@H](C)[C@@H](C(C)C)O2)OC1=O` [bafilomycin A1, reference compound], the “fusion process / virus entry into cells” value in the assay with IAV strain PR8 [2] is “efficiently inhibited virus entry into cells”.
`Cc1nn(CC(F)(F)F)cc1Nc1ncc(Br)c(NCc2ccc(S(N)(=O)=O)cc2)n1` [GSK8612]: the “IAV-induced cytopathicity of MDCK cells, time of addition” value in the assay with IAV strain PR8 [1] is “best when GSK8612 was added up to 3 h after infection”.
At CaMKII-KD, “I: MARRILLLLLARLHAKKK[Ahx]KK-NH2 / II: MARRILLLLLARLHAKKK[Ahx]K / III: MARRILLLLLARLHAKKK[Ahx] / IV: MARRILLLLLARLHAKKK[Ahx] (amide I:20-IV:C, I:21-II:C, II:20-III:C) [T3]” showed a pIC50 of 5.07.
Turning to `CC[C@H](C)[C@H](NC(=O)[C@H](CCCNC(=N)N)NC(=O)[C@H](CCCNC(=N)N)NC(=O)[C@H](C)NC(=O)[C@@H](N)CCSC)C(=O)N[C@@H](CC(C)C)C(=O)N[C@@H](CC(C)C)C(=O)N[C@@H](CC(C)C)C(=O)N[C@@H](CC(C)C)C(=O)N[C@@H](CC(C)C)C(=O)N[C@@H](C)C(=O)N[C@@H](CCCNC(=N)N)C(=O)N[C@@H](Cc1c[nH]cn1)C(=O)N[C@@H](Cc1c[nH]cn1)C(=O)N[C@@H](C)C(=O)N[C@@H](CCCCN)C(=O)N[C@@H](CCCCN)C(=O)N[C@@H](CCCCN)C(=O)NCCCCCC(=O)O` [M2] (H-MARRILLLLLARHHAKKK[Ahx]-OH), at CaMKII-KD (read-out: IC50), the pIC50 is 4.47.
“myr-Met-Ala-[no. 3 or 6 motif]-Ala [mM3, N-terminal myristoylated-M3 (myr-Met-Ala-[no. 3 motif]-Ala)]”: the “inhibitory effect on IAV cytopathicity, single cycle of infection” value in the assay on IAV strain PR8 [1] is on record as “greatest inhibitory effect on IAV cytopathicity at concentrations up to 3 µM”. Further, the “transcription of IL-6, TNFα and IL-1β” value in the assay on IL-6, TNFα, IL-1β mRNAs (RAW264.7, peptide 30 min then 10 ng/ml LPS 3 h, RT-qPCR) is listed as “efficiently inhibited”. Further, in the assay on IL-6, TNFα, IL-1β mRNAs (peptide only (no LPS)), the “IL-1β Relative expression AV” value is reported as 0.006044, the “IL-6 Relative expression AV” value was found to be 0.006603 and the “TNFα Relative expression AV” value is 2.34. Also, in the assay on IL-6, TNFα, IL-1β mRNAs (peptide+LPS), the “IL-1β Relative expression AV” value is 16.8504, the “IL-6 Relative expression AV” value amounted to 27.8458 and the “TNFα Relative expression AV” value stood at 57.9321. For the same molecule, in [4] (RAW264.7, peptide 30 min then 10 ng/ml LPS 20 min, western blot), the “LPS-induced Thr286 autophosphorylation of CaMKII” value was “efficiently inhibited”. The “Phosphorylation of CaMKII (ratio) AV” value in assay [4] (peptide 10µM, RAW264.7 cells, (-) = 1, mean of n = 3) came out at 0.8346. Also, the “inhibition of TNFα production” value in [5] is listed as “inhibited TNFα production similarly to M6”.
With `CC[C@H](C)[C@H](NC(=O)[C@H](CCCNC(=N)N)NC(=O)[C@H](C)NC(=O)[C@@H](N)CCSC)C(=O)N[C@H](C(=O)N[C@@H](CC(C)C)C(=O)N[C@@H](CC(C)C)C(=O)N[C@@H](CC(C)C)C(=O)N[C@@H](CC(C)C)C(=O)N[C@@H](CC(C)C)C(=O)N[C@@H](C)C(=O)N[C@@H](CCCNC(=N)N)C(=O)N[C@@H](CC(C)C)C(=O)N[C@@H](Cc1c[nH]cn1)C(=O)N[C@@H](C)C(=O)N[C@@H](CCCCN)C(=O)N[C@@H](CCCCN)C(=O)N[C@@H](CCCCN)C(=O)NCCCCCC(=O)O)[C@@H](C)CC` [M5] (H-MARIILLLLLARLHAKKK[Ahx]-OH), the pIC50 on CaMKII-KD (read-out: IC50) was 4.95.
On the same count and under the same terms, the value for `CC[C@H](C)[C@H](NC(=O)[C@H](CCCNC(=N)N)NC(=O)[C@H](CCCNC(=N)N)NC(=O)[C@H](C)NC(=O)[C@@H](N)CCSC)C(=O)N[C@@H](CC(C)C)C(=O)N[C@@H](CC(C)C)C(=O)N[C@@H](CC(C)C)C(=O)N[C@@H](CC(C)C)C(=O)N[C@@H](CC(C)C)C(=O)N[C@@H](C)C(=O)N[C@@H](CC(C)C)C(=O)N[C@@H](CC(C)C)C(=O)N[C@@H](Cc1c[nH]cn1)C(=O)N[C@@H](C)C(=O)N[C@@H](CCCCN)C(=O)N[C@@H](CCCCN)C(=O)N[C@@H](CCCCN)C(=O)NCCCCCC(=O)O` [M6] (H-MARRILLLLLALLHAKKK[Ahx]-OH) was 4.91.
